In patent publication US12599642B2, “Compositions derived from Salvia hispanica seeds” (Signum Biosciences, priority 2020, dated 2026):

Key:
Format in all cases: cell-based
[1] = test system: S. aureus MRSA ATCC ® 33591 ™; experiment: MIC, broth microdilution, S. aureus MRSA; conditions: ≥85% inhibition of OD
S. aureus ATCC ® 29213 ™ = experiment: MIC, broth microdilution, S. aureus; conditions: ≥85% inhibition of OD
Description: (§1) Our skin microbiome houses billions of microbes, many of which are commensal and beneficial, however in some instances can trigger harmful skin inflammation. The potential for compounds to promote a healthy skin microbiome by targeting the “bad” bugs and not harming the “good” bugs is an emerging field of study in dermatology. The purpose of this study was to evaluate the antibacterial activity of the Chia seed extract composition of Example 14 compared to control Doxycycline applied in vitro to planktonic bacteria categorized as “good” (M. luteus ATCC® 4698™, S. hominis ATCC® 27847™, S. warneri ATCC® 27836™, S. epidermidis ATCC® 12228™, S. capitis ATCC®27841™, S. simulans ATCC® 27850™) and another six which are categorized as “bad” (S. aureus ATCC™ 29213™, S. aureus MRSA ATCC® 33592™, S. pyogenes ATTC® 19615™, C. acnes ATCC™ 6919™, C. xerosis ATCC® 373™, C. granulosum ATCC® 25564™).
(§2) Test agents and control were stored at recommended storage temperature until use. Minimum Inhibitory Concentrations (MIC) were determined in vitro using the broth microdilution method. […] Antimicrobial activity was defined as the lowest concentration of each test material that inhibited ≥85% of the optical density (OD) measured in broth media. […]

“bad” strains = experiment: MIC, broth microdilution, summary over “bad” strains; conditions: range over the six “bad” strains
Description: as §1, §2

[2] = test system: S. capitis ATCC ® 27841 ™; experiment: MIC, broth microdilution, S. capitis; conditions: ≥85% inhibition of OD
Description: as §1, §2

M. luteus ATCC ® 4698 ™ = experiment: MIC, broth microdilution, M. luteus; conditions: ≥85% inhibition of OD
Description: as §1, §2

[3] = test system: S. epidermidis ATCC ® 12228 ™; experiment: MIC, broth microdilution, S. epidermidis; conditions: ≥85% inhibition of OD
Description: as §1, §2

[4] = test system: “good” skin bacteria strains; experiment: MIC, broth microdilution, summary over “good” strains; conditions: range over the six “good” strains
Description: as §1, §2

[5] = test system: S. simulans ATCC ® 27850 ™; experiment: MIC, broth microdilution, S. simulans; conditions: ≥85% inhibition of OD
Description: as §1, §2

[6] = test system: S. warneri ATCC ® 27836 ™; experiment: MIC, broth microdilution, S. warneri; conditions: ≥85% inhibition of OD
Description: as §1, §2

[7] = test system: S. hominis ATCC ® 27847 ™; experiment: MIC, broth microdilution, S. hominis; conditions: ≥85% inhibition of OD
Description: as §1, §2

[8] = test system: S. pyogenes ATCC ® 19615 ™; experiment: MIC, broth microdilution, S. pyogenes; conditions: ≥85% inhibition of OD
Description: as §1, §2

C. acnes ATCC ® 6919 ™ = experiment: MIC, broth microdilution, C. acnes; conditions: ≥85% inhibition of OD
Description: as §1, §2

C. xerosis ATCC ® 373 ™ = experiment: MIC, broth microdilution, C. xerosis; conditions: ≥85% inhibition of OD
Description: as §1, §2

[9] = test system: C. granulosum ATCC ® 25564 ™; experiment: MIC, broth microdilution, C. granulosum; conditions: ≥85% inhibition of OD
Description: as §1, §2

## Doxycycline hyclate
[1]
  MIC: (0.0020) % w/v
[1]; mean ± StDev of 3 experiments
  MIC: 20.83 ± 7.22 µg/mL
S. aureus ATCC ® 29213 ™
  MIC: (0.00002) % w/v
S. aureus ATCC ® 29213 ™; mean ± StDev of 3 experiments
  MIC: 0.20 ± 0.00 µg/mL
“bad” strains
  MIC for “bad” strains: 0.1 to 20.8 µg/mL
[2]
  MIC: (0.00007) % w/v
[2]; mean ± StDev of 3 experiments
  MIC: 0.65 ± 0.23 µg/mL
M. luteus ATCC ® 4698 ™
  MIC: (0.00001) % w/v
M. luteus ATCC ® 4698 ™; mean ± StDev of 3 experiments
  MIC: 0.10 ± 0.00 µg/mL
[3]
  MIC: (0.00013) % w/v
[3]; mean ± StDev of 3 experiments
  MIC: 1.30 ± 0.45 µg/mL
[4]
  MIC for “good” strains: 0.1 to 10.4 µg/mL
[5]
  MIC: (0.00013) % w/v
[5]; mean ± StDev of 3 experiments
  MIC: 1.04 ± 0.45 µg/mL
[6]
  MIC: (0.00003) % w/v
[6]; mean ± StDev of 3 experiments
  MIC: 0.31 ± 0.41 µg/mL
[7]
  MIC: (0.0010) % w/v
[7]; mean ± StDev of 3 experiments
  MIC: 10.42 ± 3.61 µg/mL
[8]
  MIC: (0.00001) % w/v
[8]; mean ± StDev of 3 experiments
  MIC: 0.11 ± 0.07 µg/mL
C. acnes ATCC ® 6919 ™
  MIC: (0.00003) % w/v
C. acnes ATCC ® 6919 ™; mean ± StDev of 3 experiments
  MIC: 0.26 ± 0.11 µg/mL
C. xerosis ATCC ® 373 ™
  MIC: (0.00003) % w/v
C. xerosis ATCC ® 373 ™; mean ± StDev of 3 experiments
  MIC: 0.33 ± 0.11 µg/mL
[9]
  MIC: (0.00001) % w/v
[9]; mean ± StDev of 3 experiments
  MIC: 0.13 ± 0.06 µg/mL
